Reference: paper PMC8875489, “Pharmaceutical and Safety Profile Evaluation of Novel Selenocompounds with Noteworthy Anticancer Activity” (Pharmaceutics, 2022)
Converted amounts (≈) assume the structure as drawn. Where two headings read alike, the source gives them in different places.

Experiments:
[1] = Water solubility of methylseleno-aspirin (literature); type: physicochemical; conditions: recalculated taking molecular weight into account
Excerpt: The low solubility was not a surprise: according to the literature, the majority of the synthetic organic selenocompounds are poorly soluble in water. […] (or 0.0568 g/L when taking its molecular weight into account). […] To improve the solubility of water-insoluble anticancer drug candidates, the use of solubilizers, such as surfactants, organic solvents, cyclodextrins, lipids, and pH modifiers, is a common approach. Even though lowly water-soluble drugs can become moderately soluble if a suitable amount of additives is used, the usage of the additives need to be kept below their toxicity rate. Moreover, the usage of solubilizers can cause drug instability and is limited due to undesirable effects.

[2] = design: method as in PMID 33260948; conditions: cited from earlier work

What does the source list for `C[Se]C(=O)c1ccccc1OC(C)=O` [methylseleno-aspirin]?
water solubility [1]: 56.8 µg/mL (≈ 221 µM); water solubility [2]: 220 µM (≈ 56.6 µg/mL)
